According to patent publication US20110015080A1, “Solution-based methods for RNA expression profiling” (MASSACHUSETTS INSTITUTE OF TECHNOLOGY, priority 2005, published 2011):
Where “and” joins values, the source holds several entries; their conditions need not be identical. Equal entries are not always repeated.

System: HL60 (human promyelocytic leukemia) cells
Assay: LMA-FlexMAP analysis of microtiter well cultures of HL60 cells treated with tretinoin or DMSO, KNN classification
[1] = HL60 microtiter plate wells tretinoin40-47 (replicates)

CC1=C(/C=C/C(C)=C/C=C/C(C)=C/C(=O)O)C(C)(C)CCC1 [tretinoin, all-trans-retinoic acid]
NM_000632 LUA#12 FlexMap level [1]: 60 and 298 and 544 and 994 and 932 and 486 and 500 and 525.5 | NM_000698 LUA#14 FlexMap level [1]: 45.5 and 156 and 269 and 394 and 342 and 297.5 and 363 and 352 | NM_000875 LUA#55 FlexMap level [1]: 184 and 1002 and 1389.5 and 1772 and 1303 and 1192 and 1271 and 810 | NM_000884 LUA#81 FlexMap level [1]: 82 and 506 and 875 and 897 and 732.5 and 789 and 805 and 513.5 | NM_000962 LUA#7 FlexMap level [1]: 63.5 and 391 and 761 and 776 and 470 and 646.5 and 671.5 and 452 | NM_001034 LUA#67 FlexMap level [1]: 65 and 447 and 989 and 779 and 733.5 and 645 and 1063 and 476 | NM_001101 LUA#34 FlexMap level [1]: 260.5 and 1606 and 2206 and 2257 and 1647 and 1943 and 1881 and 904 | NM_001469 LUA#79 FlexMap level [1]: 65 and 320.5 and 885 and 739 and 765 and 734 and 561 and 370 | NM_001498 LUA#18 FlexMap level [1]: 126.5 and 890.5 and 1632 and 1563.5 and 1134 and 1467 and 1510 and 888 | NM_001684 LUA#23 FlexMap level [1]: 884 and 3012 and 3316.5 and 3512 and 3036 and 2755.5 and 2662 and 1478 | NM_001948 LUA#84 FlexMap level [1]: 255 and 1430 and 2470.5 and 2273.5 and 1891 and 2131 and 2132.5 and 1104 | NM_001974 LUA#11 FlexMap level [1]: 38.5 and 98 and 351 and 256 and 258 and 253.5 and 286.5 and 224 | NM_002166 LUA#25 FlexMap level [1]: 411.5 and 1693.5 and 2999 and 2964 and 2068 and 1985 and 2518 and 1239 | NM_002358 LUA#53 FlexMap level [1]: 64 and 339 and 572 and 611 and 366 and 481 and 531 and 433 | NM_002467 LUA#90 FlexMap level [1]: 383 and 983.5 and 1643 and 1800 and 1920 and 1518 and 1725 and 1034 | NM_002468 LUA#40 FlexMap level [1]: 48 and 285.5 and 324 and 728 and 896.5 and 343 and 632 and 464 | NM_002539 LUA#74 FlexMap level [1]: 94 and 559 and 886 and 952 and 715 and 861.5 and 822 and 535 | NM_002624 LUA#36 FlexMap level [1]: 53 and 180.5 and 397 and 381 and 330.5 and 336 and 400.5 and 394 | NM_002664 LUA#38 FlexMap level [1]: 73 and 478 and 906 and 798 and 599 and 773 and 748 and 512 | NM_002970 LUA#42 FlexMap level [1]: 92 and 298 and 598 and 589 and 622.5 and 577.5 and 586 and 478 | NM_002982 LUA#45 FlexMap level [1]: 286 and 2331 and 2514 and 4037 and 4231 and 2722 and 2898 and 1696.5 | NM_003132 LUA#68 FlexMap level [1]: 41 and 126 and 264.5 and 264 and 195.5 and 257 and 296 and 327.5 | NM_003172 LUA#19 FlexMap level [1]: 818 and 3200.5 and 3348 and 3577.5 and 2983 and 2898 and 2747 and 1471 | NM_003332 LUA#43 FlexMap level [1]: 274 and 646 and 1341.5 and 1324 and 1984.5 and 1651 and 2226 and 1241.5 | NM_003581 LUA#62 FlexMap level [1]: 62.5 and 372 and 962 and 808 and 751 and 735.5 and 801 and 515 | NM_003644 LUA#17 FlexMap level [1]: 69 and 255 and 415 and 428 and 359 and 374 and 395 and 302 | NM_003752 LUA#82 FlexMap level [1]: 115.5 and 536.5 and 1061 and 1015.5 and 768.5 and 1020 and 912.5 and 596 | NM_003825 LUA#8 FlexMap level [1]: 81.5 and 192.5 and 338 and 383.5 and 307.5 and 331 and 502 and 476.5 | NM_003879 LUA#24 FlexMap level [1]: 225 and 1355.5 and 1937.5 and 1983.5 and 1275 and 1677 and 1564 and 923 | NM_004079 LUA#21 FlexMap level [1]: 350 and 2202 and 3008 and 3030.5 and 2326 and 2816 and 2701 and 1488 | NM_004095 LUA#59 FlexMap level [1]: 72 and 383 and 714 and 665 and 496.5 and 650.5 and 593.5 and 442 | NM_004106 LUA#44 FlexMap level [1]: 47 and 142 and 253.5 and 302 and 321 and 271 and 273.5 and 267 | NM_004134 LUA#76 FlexMap level [1]: 78 and 432.5 and 873 and 866 and 531 and 759 and 744 and 493 | NM_004152 LUA#31 FlexMap level [1]: 58 and 337 and 710 and 811 and 628.5 and 782 and 652 and 408.5 | NM_004514 LUA#46 FlexMap level [1]: 176 and 834 and 1159.5 and 1224 and 964 and 992 and 1017 and 626 | NM_004526 LUA#88 FlexMap level [1]: 642 and 1081.5 and 1122 and 840 and 1033 and 1012 and 641.5 | NM_004602 LUA#32 FlexMap level [1]: 458.5 and 678 and 736.5 and 1957 and 1765.5 and 664 and 571.5 and 773.5 | NM_004631 LUA#52 FlexMap level [1]: 86.5 and 322 and 705 and 629 and 524 and 633 and 667 and 532 | NM_004723 LUA#20 FlexMap level [1]: 89 and 620 and 1056 and 982 and 761 and 886 and 853 and 494.5 | NM_004741 LUA#89 FlexMap level [1]: 131 and 383 and 972 and 1003 and 933 and 920 and 1126 and 571 | NM_004759 LUA#37 FlexMap level [1]: 40.5 and 67.5 and 186.5 and 169 and 134.5 and 142 and 145 and 190 | NM_004782 LUA#4 FlexMap level [1]: 163 and 811 and 1306 and 1264 and 1063.5 and 1077 and 1094 and 639 | NM_005008 LUA#77 FlexMap level [1]: 73 and 425 and 885 and 923 and 779.5 and 801 and 828 and 525 | NM_005375 LUA#86 FlexMap level [1]: 273 and 1380 and 2455 and 2357.5 and 2068 and 2193 and 2264 and 1273.5 | NM_005566 LUA#85 FlexMap level [1]: 129.5 and 862.5 and 1842.5 and 1550 and 1000 and 1282 and 1196 and 592 | NM_005736 LUA#1 FlexMap level [1]: 92 and 522 and 909 and 1432 and 1896 and 847 and 1205.5 and 695 | NM_005914 LUA#60 FlexMap level [1]: 303 and 1363 and 2538.5 and 2273 and 1739 and 1694 and 1933.5 and 1154.5 | NM_005915 LUA#72 FlexMap level [1]: 48 and 300 and 495 and 474 and 315.5 and 496 and 401.5 and 256.5 | NM_005952 LUA#66 FlexMap level [1]: 104 and 573 and 891 and 961 and 623.5 and 847.5 and 775 and 571 | NM_005980 LUA#73 FlexMap level [1]: 35.5 and 83 and 102 and 162 and 149 and 95 and 114 and 168 | NM_006019 LUA#35 FlexMap level [1]: 41 and 192.5 and 363 and 400.5 and 353 and 361 and 402 and 332 | NM_006138 LUA#56 FlexMap level [1]: 70 and 325.5 and 443 and 659.5 and 488 and 437 and 429 and 341 | NM_006432 LUA#27 FlexMap level [1]: 90 and 394 and 854.5 and 800 and 695 and 670 and 719 and 450 | NM_006452 LUA#71 FlexMap level [1]: 207.5 and 1176 and 1736 and 1656.5 and 1374 and 1531 and 1587 and 911.5 | NM_006457 LUA#13 FlexMap level [1]: 36 and 51 and 83 and 94 and 84 and 95 and 132 and 200 | NM_006773 LUA#47 FlexMap level [1]: 164 and 717 and 1137 and 1120.5 and 783 and 937.5 and 907 and 576.5 | NM_006948 LUA#51 FlexMap level [1]: 34 and 49 and 82 and 95 and 83 and 79.5 and 85.5 and 106.5 | NM_006985 LUA#58 FlexMap level [1]: 90 and 720 and 1223 and 1310 and 813 and 1136.5 and 983 and 635 | NM_007282 LUA#16 FlexMap level [1]: 778.5 and 3067.5 and 3626 and 3678 and 3097 and 3055 and 2958.5 and 1505 | NM_007331 LUA#50 FlexMap level [1]: 88 and 474 and 915.5 and 927.5 and 770 and 739 and 835 and 583 | NM_013402 LUA#54 FlexMap level [1]: 114 and 705 and 1150 (2×) and 806 and 1051.5 and 1087 and 711 | NM_014288 LUA#48 FlexMap level [1]: 154 and 477.5 and 801 and 816 and 527.5 and 706 and 650 and 453 | NM_014333 LUA#26 FlexMap level [1]: 180.5 and 949.5 and 1577 and 1549 and 1309 and 1337 and 1390 and 811 | NM_014366 LUA#61 FlexMap level [1]: 383 and 1773 and 2236 and 2380 and 1850 and 1787.5 and 1681.5 and 1009.5 | NM_014573 LUA#70 FlexMap level [1]: 43 and 143 and 320 and 325 and 274 and 243 and 407.5 and 300 | NM_014962 LUA#5 FlexMap level [1]: 152.5 and 726 and 1269 and 1290 and 1213 and 1076 and 1134 and 717 | NM_015201 LUA#57 FlexMap level [1]: 182 and 1154 and 1768 and 1714 and 1251 and 1398.5 and 1507 and 930.5 | NM_016061 LUA#9 FlexMap level [1]: 134 and 674 and 1086 and 1267.5 and 863 and 975 and 1073.5 and 741 | NM_017440 LUA#49 FlexMap level [1]: 101 and 405.5 and 707 and 774 and 716 and 607 and 693 and 477 | NM_018115 LUA#63 FlexMap level [1]: 746.5 and 3193 and 3722 and 4141 and 3225.5 and 3292.5 and 3054 and 1569 | NM_018164 LUA#69 FlexMap level [1]: 52 and 170 and 429 and 380 and 304.5 and 304 and 358.5 and 234 | NM_018217 LUA#3 FlexMap level [1]: 189 and 990 and 1514 and 1581 and 1499 and 1286 and 1386 and 854.5 | NM_018256 LUA#83 FlexMap level [1]: 102 and 717 and 1252 and 1104 and 692.5 and 1077 and 929 and 470 | NM_018890 LUA#33 FlexMap level [1]: 562 and 2557 and 3812.5 and 4178 and 4310 and 3724.5 and 2984 and 1462.5 | NM_019058 LUA#75 FlexMap level [1]: 258 and 1804 and 2807 and 2882 and 2288 and 2430 and 2201 and 1184 | NM_020117 LUA#78 FlexMap level [1]: 236.5 and 1585 and 2193 and 2242.5 and 1690 and 1988 and 1734 and 848.5 | NM_021103 LUA#41 FlexMap level [1]: 591.5 and 1730 and 2238 and 2731 and 2283 and 1975 and 1828.5 and 1027 | NM_021203 (LUA#80) FlexMap level [1]: 53 and 171 and 386 and 377.5 and 283.5 and 348 and 279 | NM_021974 LUA#64 FlexMap level [1]: 268 and 1606 and 2307 and 2301 and 1472 and 1996 and 1890 and 1117.5 | NM_024045 LUA#65 FlexMap level [1]: 85 and 495 and 831 and 833.5 and 527 and 681 and 728.5 and 471 | NM_032571 LUA#15 FlexMap level [1]: 31 and 109 and 203 and 222.5 and 165.5 and 191 and 270.5 and 253.5 | NM_173823 LUA#6 FlexMap level [1]: 84 and 594.5 and 1106.5 and 1168.5 and 1130.5 and 1080 and 1163 and 807 | TFRC LUA#92 FlexMap level [1]: 89 and 400 and 794 and 910.5 and 811 and 827.5 and 1042 and 592 | NM_021203 (LUA#80) FlexMap level (HL60 microtiter well cultures, one value per tretinoin well): 416 and 381.5 and 345 and 387 and 409 and 426 and 427 and 412
